From a melting point compilation (Tetko et al.; mined from patent text by program, amines drawn as free bases though some values may be those of a salt)

In the case of `c1cnc2ccc(Nc3nccc(-c4ccc(N5CCNCC5)nc4)n3)cc2c1`, the melting point is reported as 199 to 200 °C. `CCOC(=O)Cn1cc(C#N)nn1` showed a melting point of 47 to 48 °C. Work on `CC12CC(CCCCCO)C3c4ccc(O)cc4CCC3C1CCC2O` (stereo not given) yielded a melting point of 152 °C. For `COc1ccc2nn(-c3cc(OCCCO)cc(C(C)(C)C)c3O)nc2c1`, the melting point was 128 to 130 °C. `N[C@@H](CO)C(=O)NC(=O)N(CCCl)N=O` gave a melting point of 117 to 120 °C. In the case of `CCOC(=O)c1nn(-c2ccc(Br)cc2)c2c1CCCC2`, the melting point is reported as 147 °C. With `CCOC(=O)c1c(O)c2cc(F)ccc2c(=O)n1CC(C)(C)C` the melting point was 115 to 116 °C. Molecule `CC(CN=C(c1ccccc1)c1ccccc1)N=C(c1ccccc1)c1ccccc1` (stereo not given) has a melting point of 89 to 90 °C. `CCCCC[C@H]1CC[C@H](/C=C/COc2ccc(C=O)cc2)CC1` showed a melting point of 54 to 55 °C. Molecule `Cc1cccc(NC(=O)NC2N=C(c3ccccc3F)c3ccccc3N(Cc3cccnc3)C2=O)c1` (racemic) has a melting point of 242 to 243 °C. Work on `ClC1=Nc2nc(C3CCCC3)n(Cc3ccccc3)c2C2=N[C@H](Cc3ccccc3)CN12` yielded a melting point of 124 to 125 °C. Work on `CC1(C)CC(OC(=O)Nc2ccccc2)CC(C)(C)N1CC(OC(=O)Nc1ccccc1)c1ccccc1` (stereo not given) yielded a melting point of 173 °C. In the case of `O=C(c1ccccc1)c1cc(O)c(O)c([N+](=O)[O-])c1`, the melting point is reported as 132 °C. `CCCNC(=O)[C@H](CSCc1ccccc1)NC(=O)c1cc2cccc(NS(=O)(=O)c3cccs3)c2[nH]1` gave a melting point of 124 to 125 °C. In the case of `CC(=O)OC1CSC(Oc2cncc(-c3ccc(F)cc3Cl)c2)C(OC(C)=O)C1OC(C)=O` (stereo not given), the melting point is reported as 115 °C. With `COc1cc(N(Cc2cccc(SC(F)(F)F)c2)C[C@@H](O)C(F)(F)F)cc(OC)c1OC` the melting point was 88.9 to 89.1 °C. In the case of `CC(C)(O)c1ccc(CNC(=O)c2cccnc2Oc2ccc(F)cc2)cc1`, the melting point is reported as 106 to 108 °C. `O=C(O)c1cn(-c2ccc(F)c(O)c2)c2c(Cl)c(F)c(F)cc2c1=O` showed a melting point of over 280 °C. For `COC(=O)C1=C(C)NC(C)=C(P(=O)(OC(C)C)OC(C)C)C1c1cccc([N+](=O)[O-])c1` (stereo not given), the melting point was 205 to 207 °C. Molecule `O=C1NC(=O)C(S(=O)(=O)c2cccc3c(Br)cccc23)S1` (stereo not given) has a melting point of 189 to 190 °C. With `OCc1ccccc1NCc1cc2c(cc1O)CCCO2` the melting point was 141 to 142 °C. In the case of `Cc1cc(-c2ccc(Cl)c(Cl)c2)nc(-n2cnc(-c3ccc(S(N)(=O)=O)cc3)c2)n1`, the melting point is reported as 282 °C. `Cn1c2ccc(Cl)cc2c2c(CC(=O)N3CCCC3)nn(-c3ccccc3)c(=O)c21` showed a melting point of 261 to 262 °C. Molecule `CCOC(=O)CCc1cc(-c2cc3ccccc3c(=O)o2)ccc1O` has a melting point of 179 to 180 °C. For `CCc1cn2c(=O)c(C#N)cnc2c2ccccc12`, the melting point was 208 to 211 °C. Molecule `COc1ccc2c(c1)cc1c3c(cccc32)C(=O)OC1=O` has a melting point of 292 to 293 °C. `COc1cc2ncnc(N3CCN(C(=S)Nc4ccccn4)CC3)c2cc1OC` showed a melting point of 208 to 210 °C. For `NS(=O)(=O)Oc1c(Cl)cccc1Cl`, the melting point was 108 to 110 °C. `CC(C)(C)c1cc(-c2nn(CCC(N)=O)c3ncccc23)cc(C(C)(C)C)c1O` gave a melting point of 154 to 157 °C. For `O=C(Nc1cccc(C(F)(F)F)c1)c1cccnc1NCCc1ccncc1`, the melting point was 128 to 138 °C. For `CCOC(=O)C1=C(C)NC(=S)N(C(=O)OCC)C1c1cccc(OC)c1` (stereo not given), the melting point was 107 to 109 °C. In the case of `COc1ccc(-n2nc(NC(=O)OC(C)(C)C)c3csc(N)c3c2=O)cc1`, the melting point is reported as 99 to 101 °C. Work on `NC(C(=O)O)c1ccc(C(=O)O)cc1SCc1ccccc1` (stereo not given) yielded a melting point of 226 °C. With `O=S(CCCCOc1ccc(C2=C(c3ccccc3)CCCc3cc(O)ccc32)cc1)CCCC(F)(F)C(F)(F)F` (stereo not given) the melting point was 155 °C. `OC[C@H]1O[C@@H](n2cnc3c(N[C@H]4CC[C@H](O)CC4)nc(Cl)nc32)[C@H](O)[C@@H]1O` showed a melting point of 203 to 204 °C. With `Cn1nc(CCc2cc(=O)[nH]c(N)n2)c2ccc(C(=O)NC[C@H](NS(=O)(=O)c3cccc4cnccc34)C(=O)O)cc21` the melting point was 122 to 125 °C. For `COc1cccc(Oc2ccc(C(=O)O)cc2C(=O)O)c1`, the melting point was 232 to 234 °C. `O=P(CCc1ccccc1)(OCc1ccccc1)OCc1ccccc1` gave a melting point of 48 to 49 °C. `COc1ccc([C@@H]2Cc3cc(OC)ccc3NC(=O)[C@@H]2O)cc1` gave a melting point of 171 to 173 °C. `COC(=O)c1ccc(C2CCC(=O)CC2)cc1` showed a melting point of 91 to 92 °C. `CCCc1nc2c(NOC)nc(C(c3ccccc3)(c3ccccc3)c3ccccc3)nc2n1CO` gave a melting point of 188 °C. Work on `O=C(NCCCCn1cncn1)c1ccc(Cl)s1` yielded a melting point of 97 to 99 °C. Work on `CC(c1oc2ccccc2c(=O)c1-c1ccccc1)n1ncc2c(N)ncnc21` (stereo not given) yielded a melting point of 226 to 227 °C. `Cn1nc(S(=O)(=O)c2ccccc2)c2cc(N3CCN(Cc4ccccc4)CC3)ccc21` showed a melting point of 195 to 197 °C. With `O=C(c1ccc2c(c1)OCC(CN1CCOCC1)N2)N1CCOCC1` (stereo not given) the melting point was 125 to 126 °C. With `CCOC(=O)[C@H]1[C@@H]2CC(=O)[C@@](N=[N+]=[N-])(C(=O)OCc3ccccc3)[C@@H]21` the melting point was 46 to 48 °C. Work on `CCn1ncc2c(Cl)c(C=O)cnc21` yielded a melting point of 89 to 90 °C. For `N=C(N)c1ccc2c(c1)N(CC(=O)c1ccccc1-c1ccccc1)C(=O)CN2`, the melting point was 148 to 150 °C. For `CC(C)(C)c1cc(C(=O)c2ncco2)cc(C(C)(C)C)c1O`, the melting point was 127 to 130 °C. `c1ccc(-c2ccc(-c3nc(COc4ccc(CCCn5ccnc5)cc4)co3)s2)cc1` gave a melting point of 128 to 129 °C. With `O=[N+]([O-])c1ccc(C=Cc2ccc(N3CCOCCOCCOCCOCCOCC3)cc2)c([N+](=O)[O-])c1` the melting point was 90 to 91 °C. Molecule `CCOC(=O)c1cn(C2CCCCC2)c2cc(Br)ccc2c1=O` has a melting point of 129 to 133 °C. In the case of `CCCCCCCCCCCCCCCCCCOc1cc(C(=O)OC)cc(N(CC(=O)OCc2ccccc2)CC(=O)OCc2ccccc2)c1`, the melting point is reported as 62 to 63 °C. Work on `COc1cc(N2CCCC2)ncc1NC(=O)c1cc2cc(F)ccc2n1Cc1cccc(F)c1` yielded a melting point of 196 to 198 °C. `COc1cc(N)c([N+](=O)[O-])cc1O` gave a melting point of 171 °C. For `COc1cccc(CC2NC(=O)NC2=O)c1OCc1ccccc1` (racemic), the melting point was 202 to 204 °C. Work on `CCCS(=O)(=O)Nc1ccc(Sc2c(O)c3c(=O)n(-c4ccccc4)c4ccccc4c3oc2=O)cc1` yielded a melting point of 249 to 251 °C. In the case of `O=C(O)c1ccccc1OCCN1CCC(c2cn(CC3CC3)c3ccccc23)CC1`, the melting point is reported as 145 to 147 °C. For `CCOC(=O)[C@@H]1OC(c2ccc3c(c2)OCO3)O[C@H]1C(=O)OCC`, the melting point was 39 to 40 °C. With `O=C(NCc1ccc(Cl)c(Cl)c1)c1cn2c(=O)n(Cc3ccc(Cl)cc3)c(=O)cc2s1` the melting point was 218 to 219 °C. For `Cn1c(C(F)(F)F)cc(=O)n(-c2ccc3snc(C4OCC(CS(C)=O)O4)c3c2)c1=O` (stereo not given), the melting point was 72 to 75 °C. With `CCCCCCCCCCC1CN(O)C(=O)N1C` (stereo not given) the melting point was 47 to 48 °C. Work on `CCOC(=O)C(C#N)=CNc1ccc(C)cn1` yielded a melting point of 170 to 172 °C. Molecule `O=C1c2ccccc2C(=O)N1CCN1c2ccccc2N(Cc2ccccc2)C(=O)[C@H]2CCC[C@H]21` (relative stereo) has a melting point of 142 to 143 °C. `N#Cc1cc(N)ccc1CN1CCC(N2CCOCC2)CC1` gave a melting point of 162 to 165 °C. `C[C@]12C[C@H](c3ccc(OCCCCCS(=O)(=O)CCCc4c(F)c(F)c(F)c(F)c4F)cc3)[C@@H]3c4ccc(O)cc4CC[C@H]3[C@@H]1CC[C@@H]2O` gave a melting point of 130 °C. Molecule `CNC(=O)N(c1ccncc1)n1cccc1` has a melting point of 156 to 160 °C. `CCOC(=O)CC(=O)COCC1=C(C(=O)OCC)C(c2ccccc2Cl)C(C(=O)OC)=C(C)N1` (stereo not given) gave a melting point of 88 to 89 °C. Work on `CCCCCCCCCCCCCCN(C)c1cc(OCC)c(N)cc1C(=O)O` yielded a melting point of 80 to 81 °C. `O=c1[nH]c2cc(Cl)ccc2c(=O)n1S(=O)(=O)c1cccc2cccnc12` showed a melting point of 284 to 286 °C. Molecule `O=C(NCc1ccccc1)c1ccnc(NC(=O)c2cccc(F)c2)c1` has a melting point of 140 to 143 °C. For `CC(C)OC(=O)Nc1ccc2nc(-c3ccccc3)oc2n1`, the melting point was 210 to 211 °C. With `O=S(=O)(c1ccc(F)cc1)N1CCCC1c1ccsc1` (racemic) the melting point was 135 °C. Molecule `O=S1(=O)N=CN(C2CC2)c2cc(F)cc(Br)c21` has a melting point of 270 to 273 °C. Work on `Nc1ccnc(SCCCCN2C(=O)c3ccccc3C2=O)n1` yielded a melting point of 164 to 167 °C. `Clc1ccc(CO[C@H]2CO[C@@H](c3ccccc3)OC2)cc1Cl` showed a melting point of 77 to 78 °C. Molecule `O=C(c1ccccc1)c1ccc(N2CCCC2=O)cc1` has a melting point of 156 to 158 °C. With `N#Cc1ccc(-c2ccc(OCCN(O)C=O)cc2)cc1` the melting point was 142 to 145 °C. Work on `CC(C)(C)OC(=O)N=C(NC(=O)OC(C)(C)C)Nc1ccc2c(c1)Cc1cc(NC(=NC(=O)OC(C)(C)C)NC(=O)OC(C)(C)C)ccc1-2` yielded a melting point of over 340 °C. With `Oc1ccc(-c2nc(-c3ccccc3)[nH]c2-c2ccc(O)cc2)cc1` the melting point was 327 to 330 °C. `O=C(O)C(C(=O)O)C1c2ccccc2CCc2ccccc21` showed a melting point of 183 °C. With `COc1ccc(C(=O)c2cccc(C(=O)O)c2)c(O)c1` the melting point was 229 to 236 °C. With `O=C(O)Cc1ccccc1SCc1ccc(Cl)cc1` the melting point was 149 to 151 °C. Work on `C#CCn1c(C(F)(F)F)cc2ccccc21` yielded a melting point of 59 °C. Molecule `CCOC(=O)C(C)(C)Oc1ccc(-c2ccc(CNC(=O)c3cc(Cl)ccc3OC)cc2)cc1` has a melting point of under 20 °C. `COc1c(Cl)ccc(-c2cc(N)c(Cl)c(C(=O)NOC3C=CCCC3)n2)c1F` (stereo not given) showed a melting point of 180 to 182 °C. With `COc1ccc(N2CCOCC2)c2sc(NC(=O)N(C)C3CCOCC3)nc12` the melting point was 240 to 242 °C. With `CC(C)c1nc(-c2ccccc2)nc(-c2ccc(F)cc2)c1C=O` the melting point was 127 to 129 °C. In the case of `CC(C)n1nc(-c2cnc(N)nc2-c2cccnc2)ccc1=O`, the melting point is reported as 204 °C. `CCN(CC)c1ccc(C(c2ccc(N(C)C)cc2C(=O)O)c2ccc(N(C)C)cc2N(C)C)cc1` (stereo not given) showed a melting point of 128 to 130 °C. For `CS(=O)(=O)c1ccc(Cc2ccc3ccccc3c2O)cc1`, the melting point was 144 to 145 °C. `CC(=O)OC1CCCc2cnc3ccc(OCc4ccccc4[N+](=O)[O-])cc3c21` (stereo not given) gave a melting point of 125 to 127 °C. For `O=C1CCC(N2Cc3c(CNC(=O)c4ccc(Cl)c(Cl)c4)cccc3C2=O)C(=O)N1` (stereo not given), the melting point was over 260 °C. Work on `COC(=O)c1ccc(NC2CCCCC2)cc1C(=O)OC` yielded a melting point of 217 to 219 °C. With `CCC1SC(=O)NN=C1c1ccc(OC(F)F)c(OC)c1` (stereo not given) the melting point was 97 °C.
